Reference: ChEMBL document CHEMBL5233271, “Discovering the Mechanisms of Wikstroelide E as a Potential HIV-Latency-Reversing Agent by Transcriptome Profiling” (J Nat Prod, 2021)
Calls of active or inactive are those of the source.

Key:
NH2 [1] = test: Activation of NFkappaB signalling pathway in human NH2 cells assessed as induction of IkappaBalpha degradation measured after 1 hr by Western blot analysis; type: cell-based; settings: filed as activator, dose 0-80 nM
[2] = tested on: Human immunodeficiency virus; test: Reactivation of latent HIV in human J-Lat Tat-GFP Clone A2 cells assessed as increase in GFP expression at 0 to 20 nM measured after 24 hrs by fluorescence microscopy; type: functional, organism-based; settings: dose 0-20 nM
J-Lat Tat-GFP Clone A2 [3] = test: Upregulation of BZW1 gene expression in human J-Lat Tat-GFP Clone A2 cells at 10 nM measured after 6 hrs by transcriptome analysis; type: functional, cell-based
NH2 [4] = test: Activation of NFkappaB signalling pathway in human NH2 cells assessed as induction of IkappaBalpha degradation at 40 nM by Western blot analysis; type: cell-based; settings: filed as activator, time 5-120 min, TDE = time-dependent effect
J-Lat Tat-GFP Clone A2 [5] = test: Upregulation of HSP90B1 gene expression in human J-Lat Tat-GFP Clone A2 cells at 10 nM measured after 6 hrs by transcriptome analysis; type: functional, cell-based
[6] = tested on: Human immunodeficiency virus; test: HIV-latency reversing activity in human NH2 cells at 10 nM pretreated with BAY11-7082 for 1 hr followed by compound addition and measured after 12 hrs by luciferase based assay; type: functional, organism-based
[7] = tested on: Human immunodeficiency virus; test: Reactivation of latent HIV in human NH1 cells measured after 24 hrs by luciferase based analysis; type: functional, organism-based; settings: dose 0.5-10 nM
[8] = tested on: Human immunodeficiency virus; test: Reactivation of latent HIV in human NH1 cells assessed as fold change measured after 24 hrs by luciferase based analysis relative to -prostratin; type: functional
J-Lat Tat-GFP Clone A2 [9] = test: Downregulation of CNBP gene expression in human J-Lat Tat-GFP Clone A2 cells at 10 nM measured after 6 hrs by transcriptome analysis; type: functional, cell-based
J-Lat Tat-GFP Clone A2 [10] = test: Downregulation of IKBKG gene expression in human J-Lat Tat-GFP Clone A2 cells at 10 nM measured after 6 hrs by transcriptome analysis; type: functional, cell-based
NH2 [11] = test: Activation of NFkappaB signalling pathway in human NH2 cells assessed as increase in translocation of p65 from cytoplasm to nucleus at 40 nM pretreated with PKC inhibitor, Go6983 for 1 hr followed by compound addition and measured after 12 hrs by Western blot analysis; type: cell-based
J-Lat Tat-GFP Clone A2 [12] = test: Activation of NFkappaB signalling pathway in human J-Lat Tat-GFP Clone A2 cells assessed as increase in translocation of p65 from cytoplasm to nucleus at 40 nM measured after 15 to 60 mins by Western blot analysis; type: cell-based; settings: filed as activator, time 15-60 min
[13] = tested on: Human immunodeficiency virus; test: Reactivation of latent HIV in human NH1 cells at 10 nM by luciferase based analysis; type: functional, organism-based; settings: time 6-36 hrs, TDE = time-dependent effect
J-Lat Tat-GFP Clone A2 [14] = test: Downregulation of ADI1 gene expression in human J-Lat Tat-GFP Clone A2 cells at 10 nM measured after 6 hrs by transcriptome analysis; type: functional, cell-based
NH2 [15] = test: Activation of NFkappaB signalling pathway in human NH2 cells assessed as increase in IkappaBalpha phosphorylation measured after 1 hr by Western blot analysis; type: cell-based; settings: filed as activator, dose 0-80 nM
[16] = tested on: Human immunodeficiency virus; test: HIV-latency reversing activity in human NH2 cells at 10 nM pretreated with JAK inhibitor, -decernotinib for 1 hr followed by compound addition and measured after 12 hrs by luciferase based assay; type: functional, organism-based
J-Lat Tat-GFP Clone A2 [17] = test: Activation of NFkappaB signalling pathway in human J-Lat Tat-GFP Clone A2 cells assessed as induction of IkappaBalpha degradation at 40 nM by Western blot analysis; type: cell-based; settings: filed as activator, time 5-120 min, TDE = time-dependent effect
[18] = tested on: Human immunodeficiency virus; test: Reactivation of latent HIV in human J-Lat 2D10 cells measured after 24 hrs by fluorescence based analysis; type: functional, organism-based; settings: dose 0.5-40 nM
[19] = Cytotoxicity against human NH1 cells at 1 uM incubated for 72 hrs; type: toxicity, cell-based; settings: nh1, 72 h
NH2 [20] = test: Activation of NFkappaB signalling pathway in human NH2 cells assessed as increase in translocation of p65 from cytoplasm to nucleus at 40 nM measured after 15 to 60 mins by Western blot analysis; type: cell-based; settings: filed as activator, time 15-60 min
[21] = tested on: Human immunodeficiency virus; test: Reactivation of latent HIV in human NH2 cells measured after 24 hrs by luciferase based analysis; type: functional, organism-based; settings: dose 0.5-10 nM
J-Lat Tat-GFP Clone A2 [22] = test: Downregulation of PRKCQ gene expression in human J-Lat Tat-GFP Clone A2 cells at 10 nM measured after 6 hrs by transcriptome analysis; type: functional, cell-based
J-Lat Tat-GFP Clone A2 [23] = test: Downregulation of FLNB gene expression in human J-Lat Tat-GFP Clone A2 cells at 10 nM measured after 6 hrs by transcriptome analysis; type: functional, cell-based
[24] = tested on: Human immunodeficiency virus; test: Reactivation of latent HIV in human J-Lat Tat-GFP Clone A2 cells assessed as increase in GFP expression at 10 nM by live fluorescence imaging analysis; type: functional, organism-based; settings: time 6-36 hrs, TDE = time-dependent effect
J-Lat Tat-GFP Clone A2 [25] = test: Upregulation of CHCHD2 gene expression in human J-Lat Tat-GFP Clone A2 cells at 10 nM measured after 6 hrs by transcriptome analysis; type: functional, cell-based
[26] = Cytotoxicity against human NH2 cells at 1 uM incubated for 72 hrs; type: toxicity, cell-based; settings: nh2, 72 h
[27] = tested on: Human immunodeficiency virus; test: HIV-latency reversing activity in human NH2 cells at 10 nM pretreated with PDTC for 1 hr followed by compound addition and measured after 12 hrs by luciferase based assay; type: functional, organism-based

C=C(C)[C@]12C[C@@H](C)[C@@]34O[C@]5(CCCCCCC[C@H](C)[C@H]6[C@H](C)C(=O)[C@@](O)([C@H](O)[C@@]7(CO)O[C@H]7[C@H]3[C@H]1O5)[C@@H]64)O2
Non-Toxic: Activity [19] | Activity [26]
active: Activity (NH2 [1]) Dose-Dependent Effect | Activity [2] | Activity (J-Lat Tat-GFP Clone A2 [3]) | Activity (NH2 [4]) Tde | Activity (J-Lat Tat-GFP Clone A2 [5]) | Activity [7] Dose-Dependent Effect | Activity (J-Lat Tat-GFP Clone A2 [9]) | Activity (J-Lat Tat-GFP Clone A2 [10]) | Activity (J-Lat Tat-GFP Clone A2 [12]) | Activity [13] Tde | Activity (J-Lat Tat-GFP Clone A2 [14]) | Activity (NH2 [15]) Dose-Dependent Effect | Activity (J-Lat Tat-GFP Clone A2 [17]) Tde | Activity [18] Dose-Dependent Effect | Activity (NH2 [20]) | Activity [21] Dose-Dependent Effect | Activity (J-Lat Tat-GFP Clone A2 [22]) | Activity (J-Lat Tat-GFP Clone A2 [23]) | Activity [24] Tde | Activity (J-Lat Tat-GFP Clone A2 [25])
2500: fold change (FC) [8]
inactive: Activity [6] | Activity (NH2 [11]) | Activity [16] | Activity [27]
